Results taken from patent US20240158392A1 (Janssen Biotech, Inc., priority 2021, published 2024).
pIC50: −log10 of the molar value.

Molecular target: T1, SIK2 (Homo sapiens, UniProt Q9H0K1)
Assay: SIK2 Enzymatic Assay High Version 2 (High ATP)
Type: biochemical
Conditions: not given
How it was run: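 At room temperature, enzyme (6 nM, 2× final) was preincubated with compound for 30 min, then 6 mM ATP and 400 μM HDAC5tide (both 2× final) were added for 2 h. ADP formed was measured by ADP-Glo Max (2 h reagent, 1 h detection) using luminescence.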

T1 sequence (Q9H0K1 whole entry, species assumed): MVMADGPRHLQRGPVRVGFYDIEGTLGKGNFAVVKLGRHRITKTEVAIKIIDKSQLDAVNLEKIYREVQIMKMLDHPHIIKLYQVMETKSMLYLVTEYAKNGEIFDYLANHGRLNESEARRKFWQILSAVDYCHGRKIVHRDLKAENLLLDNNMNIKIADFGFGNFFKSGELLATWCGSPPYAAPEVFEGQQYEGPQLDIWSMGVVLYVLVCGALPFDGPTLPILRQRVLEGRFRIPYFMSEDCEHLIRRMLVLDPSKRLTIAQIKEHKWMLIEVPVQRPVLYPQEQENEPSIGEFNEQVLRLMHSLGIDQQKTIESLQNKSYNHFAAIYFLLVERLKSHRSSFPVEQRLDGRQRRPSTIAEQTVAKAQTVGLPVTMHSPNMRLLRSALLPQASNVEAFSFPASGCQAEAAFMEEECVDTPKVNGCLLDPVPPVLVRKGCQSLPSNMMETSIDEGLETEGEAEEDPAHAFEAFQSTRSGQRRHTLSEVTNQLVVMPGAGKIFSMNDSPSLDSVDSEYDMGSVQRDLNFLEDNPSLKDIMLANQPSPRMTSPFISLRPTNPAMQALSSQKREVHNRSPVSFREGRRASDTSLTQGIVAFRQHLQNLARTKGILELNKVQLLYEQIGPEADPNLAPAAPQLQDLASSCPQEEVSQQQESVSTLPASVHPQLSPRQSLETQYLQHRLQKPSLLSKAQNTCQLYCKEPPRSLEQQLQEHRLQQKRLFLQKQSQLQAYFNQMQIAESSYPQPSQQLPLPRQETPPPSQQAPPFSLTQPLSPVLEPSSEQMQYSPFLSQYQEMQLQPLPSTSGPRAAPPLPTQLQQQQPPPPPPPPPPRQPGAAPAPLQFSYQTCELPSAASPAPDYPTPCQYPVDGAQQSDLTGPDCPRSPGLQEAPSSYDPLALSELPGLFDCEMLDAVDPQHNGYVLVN

Row | SMILES | pIC50
1 | Cc1cc(-c2ccn3nc(Nc4ccc(C(F)(F)F)cn4)cc3c2)c(O[C@H]2C[C@H]3COC[C@@H](C2)N3)cn1 [Example 374, 5-[2-methyl-5-[[(1S,5R,7s)-3-oxa-9-azabicyclo[3.3.1]nonan-7-yl]oxy]-4-pyridyl]-N-[5-(trifluoromethyl)-2-pyridyl]pyrazolo[1,5-a]pyridin-2-amine] | > 9.07
2 | Cc1cc(-c2ccn3nc(NC(=O)C4CC4)cc3c2)c(OC[C@@H]2CCN2CCF)cn1 [Example 573, N-[5-[5-[[(2S)-1-(2-fluoroethyl)azetidin-2-yl]methoxy]-2-methyl-4-pyridyl]pyrazolo[1,5-a]pyridin-2-yl]cyclopropanecarboxamide] | 7.13
3 | CNC(=O)c1ccnc(Nc2cc3cc(-c4cc(C)ncc4O[C@H]4C[C@H]5COC[C@@H](C4)N5C)ccn3n2)c1 [Example 409, N-methyl-2-[[5-[2-methyl-5-[[(1S,5R,7s)-9-methyl-3-oxa-9-azabicyclo[3.3.1]nonan-7-yl]oxy]-4-pyridyl]pyrazolo[1,5-a]pyridin-2-yl]amino]pyridine-4-carboxamide] | > 9.07
4 | CNC(=O)c1cccc(Nc2cc3cc(-c4cc(C)ncc4O[C@H]4C[C@H]5COC[C@@H](C4)N5)ccn3n2)n1 [Example 367, N-methyl-6-[[5-[2-methyl-5-[[(1S,5R,7s)-3-oxa-9-azabicyclo[3.3.1]nonan-7-yl]oxy]-4-pyridyl]pyrazolo[1,5-a]pyridin-2-yl]amino]pyridine-2-carboxamide] | 8.17
5 | CC#Cc1cc(-c2ccn3nc(Nc4ccn(C)n4)cc3c2)c(O[C@H]2C[C@H]3COC[C@@H](C2)N3)cn1 [Example 438, N-(1-methylpyrazol-3-yl)-5-[5-[[(1S,5R)-3-oxa-9-azabicyclo[3.3.1]nonan-7-yl]oxy]-2-prop-1-ynyl-4-pyridyl]pyrazolo[1,5-a]pyridin-2-amine] | 7.99

Same assay, conditions: enzyme 6 nM, 6 mM ATP and 400 μM HDAC5tide (each 2× final concentration); 30 minutes pre-incubation, 2 hours; ADP-Glo Max luminescence; read-out: SIK2 high ATP IC50 (μM) (Test Example 2)

Row | SMILES | IC50
6 | Cc1cc(-c2ccn3nc(Nc4cc(C)nc(C)n4)cc3c2)c(OC[C@@H]2CC3(CCC3)CO2)cn1 (single isomer, unassigned) [Example 220, (*S)-5-(5-((6-oxaspiro[3.4]octan-7-yl)methoxy)-2-methylpyridin-4-yl)-N-(2,6-dimethylpyrimidin-4-yl)pyrazolo[1,5-a]pyridin-2-amine] | 0.0142 µM
7 | Cc1cc(Nc2cc3cc(-c4cc(OCC#N)ncc4OCC(C)(C)C#N)ccn3n2)nc(C)n1 [Example 672, 3-[[6-(cyanomethoxy)-4-[2-[(2,6-dimethylpyrimidin-4-yl)amino]pyrazolo[1,5-a]pyridin-5-yl]-3-pyridyl]oxy]-2,2-dimethyl-propanenitrile] | 0.004 µM
8 | Cc1cc(Nc2cc3cc(-c4cc(OC(F)F)ncc4OCC(C)(C)C(=O)N(C)C)ccn3n2)nc(C)n1 [Example 728, 3-[[6-(difluoromethoxy)-4-[2-[(2,6-dimethylpyrimidin-4-yl)amino]pyrazolo[1,5-a]pyridin-5-yl]-3-pyridyl]oxy]-N,N,2,2-tetramethyl-propanamide] | 0.0049 µM
9 | Cc1cc(-c2ccn3nc(Nc4cc(C)nc(C)n4)cc3c2)c(OC[C@H]2CCO[C@H]2C)cn1 (single isomer, unassigned) [Example 206, N-(2,6-dimethylpyrimidin-4-yl)-5-(2-methyl-5-(((2*S,3*R)-2-methyltetrahydrofuran-3-yl)methoxy)pyridin-4-yl)pyrazolo[1,5-a]pyridin-2-amine] | 0.0175 µM
10 | Cc1cc(-c2ccn3nc(Nc4cccnn4)cc3c2)c(OC[C@@H]2CNCCO2)cn1 [Example 134, 5-[2-methyl-5-[[(2S)-morpholin-2-yl]methoxy]-4-pyridyl]-N-pyridazin-3-yl-pyrazolo[1,5-a]pyridin-2-amine] | 0.0128 µM
11 | Cc1cc(-c2ccn3nc(Nc4cc(C)nc(C(=O)NCC(F)(F)F)n4)cc3c2)c(OCC(C)(C)O)cn1 [Example 644, 4-[[5-[5-(2-hydroxy-2-methyl-propoxy)-2-methyl-4-pyridyl]pyrazolo[1,5-a]pyridin-2-yl]amino]-6-methyl-N-(2,2,2-trifluoroethyl)pyrimidine-2-carboxamide] | 0.0734 µM
12 | Cc1cc(-c2ccn3nc(Nc4cc(C)nc(C)n4)cc3c2)c(OC[C@]2(O)CCCOC2)cn1 (single isomer, unassigned) [Example 608, (*S)-3-[[4-[2-[(2,6-dimethylpyrimidin-4-yl)amino]pyrazolo[1,5-a]pyridin-5-yl]-6-methyl-3-pyridyl]oxymethyl]tetrahydropyran-3-ol] | 0.0922 µM
13 | Cc1cc(Nc2cc3cc(-c4cc(OC(F)F)ncc4OCC4(C#N)CC4)ccn3n2)nc(C)n1 [Example 720, 1-[[6-(difluoromethoxy)-4-[2-[(2,6-dimethylpyrimidin-4-yl)amino]pyrazolo[1,5-a]pyridin-5-yl]-3-pyridyl]oxymethyl]cyclopropanecarbonitrile] | 0.00954 µM
14 | Cc1cnc(Nc2cc3cc(-c4cc(C)ncc4OC[C@]45CN[C@H](CO4)C5)ccn3n2)cn1 [Example 251, 5-[2-methyl-5-[[(1S,4S)-5-oxa-2-azabicyclo[2.2.1]heptan-4-yl]methoxy]-4-pyridyl]-N-(5-methylpyrazin-2-yl)pyrazolo[1,5-a]pyridin-2-amine] | 0.00284 µM

Results, then the molecule that gave them:

Row | IC50 | SMILES
15 | 0.0284 µM | Cc1cc(Nc2cc3cc(-c4cc(C(F)(F)F)ncc4OC[C@@]45CN[C@@H](CO4)C5)ccn3n2)nc(C)n1 [Example 252, N-(2,6-dimethylpyrimidin-4-yl)-5-[5-[[(1R,4R)-5-oxa-2-azabicyclo[2.2.1]heptan-4-yl]methoxy]-2-(trifluoromethyl)-4-pyridyl]pyrazolo[1,5-a]pyridin-2-amine]
16 | 0.000935 µM | Cc1cc(Nc2cc3cc(-c4cc(OC(F)F)ncc4O[C@H]4CC[C@H](O)CC4)ccn3n2)nc(C)n1 [Example 677, (1r,4r)-4-[[6-(difluoromethoxy)-4-[2-[(2,6-dimethylpyrimidin-4-yl)amino]pyrazolo[1,5-a]pyridin-5-yl]-3-pyridyl]oxy]cyclohexanol]
17 | 0.0998 µM | Cc1cc(-c2ccn3nc(Nc4cc(C)nc(C)n4)cc3c2)c(O[C@H]2CCOC(C)(C)C2)cn1 (single isomer, unassigned) [Example 578, (*S)—N-(2,6-dimethylpyrimidin-4-yl)-5-[5-(2,2-dimethyltetrahydropyran-4-yl)oxy-2-methyl-4-pyridyl]pyrazolo[1,5-a]pyridin-2-amine]
18 | 0.0838 µM | Cc1cc(-c2ccn3nc(Nc4cc(C)nc(C)n4)cc3c2)c(O[C@H]2CC[C@H](C#N)CC2)cn1 [Example 581, (1r,4r)-4-((4-(2-((2,6-dimethylpyrimidin-4-yl)amino)pyrazolo[1,5-a]pyridin-5-yl)-6-methylpyridin-3-yl)oxy)cyclohexane-1-carbonitrile]
19 | 0.325 µM | COc1cc(Nc2cc3cc(-c4cc(C)ncc4O[C@H]4CC[C@H](O)CC4)ccn3n2)cc(OC)c1 [Example 645, (1r,4r)-4-((4-(2-((3,5-dimethoxyphenyl)amino)pyrazolo[1,5-a]pyridin-5-yl)-6-methylpyridin-3-yl)oxy)cyclohexan-1-ol]
20 | 0.00712 µM | Cc1cc(-c2ccn3nc(NC(=O)C4CC4)cc3c2)c(OC[C@@]23CN[C@@H](CO2)C3)cn1 [Example 248, N-[5-[2-methyl-5-[[(1R,4R)-5-oxa-2-azabicyclo[2.2.1]heptan-4-yl]methoxy]-4-pyridyl]pyrazolo[1,5-a]pyridin-2-yl]cyclopropanecarboxamide]
21 | 0.00234 µM | Cc1cc(-c2ccn3nc(NC(=O)C4CC4)cc3c2)c(OCC2(C#N)CNC2)cn1 [Example 221, N-[5-[5-[(3-cyanoazetidin-3-yl)methoxy]-2-methyl-4-pyridyl]pyrazolo[1,5-a]pyridin-2-yl]cyclopropanecarboxamide]
22 | 0.0759 µM | Cc1cc(-c2ccn3nc(Nc4cc(C)nc(C)n4)cc3c2)c(OC[C@H]2C[C@@H](C#N)C2)cn1 [Example 687, 3-[[4-[2-[(2,6-dimethylpyrimidin-4-yl)amino]pyrazolo[1,5-a]pyridin-5-yl]-6-methyl-3-pyridyl]oxymethyl]cyclobutanecarbonitrile]

Molecular target: T1, SIK2
Assay: SIK2 Enzymatic Assay Version 1 (ADP Glo)
Type: biochemical
Conditions: enzyme 0.6 nM, 160 μM ATP and 140 μM HDAC5tide (each 2× final concentration); 30 minutes pre-incubation, 4 hours; ADPGlo luminescence; read-out: SIK2 ADP Glo IC50 (μM) (Test Example 1)
Method: All steps were performed at room temperature. Compounds were pre-plated onto an assay plate using an Echo acoustic dispenser (Labcyte, E550 or E555) at 20 nL per well. Enzyme prepared in Assay Buffer at 0.6 nM (2× final concentration) was added at 2 μL per well using the Multidrop Combi (Thermo Fisher—used for all additions in this assay) to the assay plate, spun for 1 min at 800-850 rpm (Allegra 6KR Beckman Coulter centrifuge), and incubated with compound for 30 minutes.
One column of wells was dedicated to a no-peptide negative control (containing only ATP). ADPGlo Reagent (prepared and aliquoted as per manufacturer instructions) was then added at 2 μL per well, spun and incubated for 40 min. ADPGlo Detection (prepared and aliquoted as per manufacturer instructions) was added at 2 μL per well to the assay plate, which was spun and incubated for at least 30 min. The plate was then read on the Pherastar (BMG Labtech) using a luminescence read. Gain was set by the 0.1 mM concentration of ADP wells in the ADP/ATP standard curve plate generated as per manufacturer instructions.

Row | IC50 | SMILES
23 | 0.0249 µM | N#Cc1cc(-c2ccn3nc(NC(=O)C4CC4)cc3c2)c(O[C@H]2CCN[C@@H](C(F)(F)F)C2)cn1 (single isomer, unassigned) [Example 14, N-(5-(2-cyano-5-(((2*R,4*S)-2-(trifluoromethyl)piperidin-4-yl)oxy)pyridin-4-yl)pyrazolo[1,5-a]pyridin-2-yl)cyclopropanecarboxamide]
24 | 0.0312 µM | COc1c(C)cccc1-c1ccn2nc(NC(=O)C3CC3)cc2c1 [Example 747, N-[5-(2-methoxy-3-methyl-phenyl)pyrazolo[1,5-a]pyridin-2-yl]cyclopropanecarboxamide]

Row | SMILES | IC50
25 | Cc1cc(-c2ccn3nc(NC(=O)C4CC4)cc3c2)c(O[C@@H]2C[C@H]3CC[C@@H](C2)N3C)cn1 [Example 140, N-(5-(2-methyl-5-(((1R,3r,5S)-8-methyl-8-azabicyclo[3.2.1]octan-3-yl)oxy)pyridin-4-yl)pyrazolo[1,5-a]pyridin-2-yl)cyclopropanecarboxamide] | 0.0195 µM
